Laboratory results published in the supplement of paper PMC10307832.

Legend:
Test in all cases: relative viability (nuclei count vs DMSO), 5 days (fraction); higher = more cells survive
Wnt-C59 + Tozasertib = compound: CC1=NC=CC(=C1)C2=CC=C(C=C2)CC(=O)NC3=CC=C(C=C3)C4=CN=CC=C4 [Wnt-C59] + Cc1cc(Nc2cc(N3CCN(C)CC3)nc(Sc3ccc(NC(=O)C4CC4)cc3)n2)n[nH]1 [Tozasertib] (partner 0.1 µM)
Procedure, shortened: (§1)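 Relative viability was taken as the ratio of nuclei in treated wells to nuclei in vehicle wells. Lung cancer cell lines in 1536-well plates received compounds by pin tool one day after seeding, either one drug alone or a fixed anchor-drug dose plus five library-drug doses (not always all listed) in √10 steps. Nuclei were counted on 4× images after 5 days of treatment, and values are medians of duplicate plates.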

Lapatinib + Foretinib = compound: CS(=O)(=O)CCNCc1ccc(-c2ccc3ncnc(Nc4ccc(OCc5cccc(F)c5)c(Cl)c4)c3c2)o1 [Lapatinib] + COc1cc2c(Oc3ccc(NC(=O)C4(C(=O)Nc5ccc(F)cc5)CC4)cc3F)ccnc2cc1OCCCN1CCOCC1 [Foretinib] (partner 0.25 µM)
Procedure, shortened: as §1

Wnt-C59 + Dasatinib = compound: CC1=NC=CC(=C1)C2=CC=C(C=C2)CC(=O)NC3=CC=C(C=C3)C4=CN=CC=C4 [Wnt-C59] + Cc1nc(Nc2ncc(C(=O)Nc3c(C)cccc3Cl)s2)cc(N2CCN(CCO)CC2)n1 [Dasatinib] (partner 0.075 µM)
Procedure, shortened: as §1

Lapatinib + Pictilisib = compound: CS(=O)(=O)CCNCc1ccc(-c2ccc3ncnc(Nc4ccc(OCc5cccc(F)c5)c(Cl)c4)c3c2)o1 [Lapatinib] + CS(=O)(=O)N1CCN(Cc2cc3nc(-c4cccc5[nH]ncc45)nc(N4CCOCC4)c3s2)CC1 [Pictilisib] (partner 1 µM)
Procedure, shortened: as §1

NCI-H2085
relative viability (Wnt-C59 + Tozasertib; first compound 0.001 µM): 0.807 | relative viability (Wnt-C59 + Tozasertib; first compound 0.01 µM): 0.795 | relative viability (Wnt-C59 + Tozasertib; first compound 0.03162 µM): 0.831 | relative viability (Wnt-C59 + Tozasertib; first compound 0.1 µM): 0.824 | relative viability (Lapatinib + Foretinib; first compound 0.06325 µM): 0.737 | relative viability (Lapatinib + Foretinib; first compound 0.2 µM): 0.899 | relative viability (Lapatinib + Foretinib; first compound 0.6325 µM): 0.862 | relative viability (Lapatinib + Foretinib; first compound 2 µM): 0.535 | relative viability (Wnt-C59 + Dasatinib; first compound 0.001 µM): 0.282 | relative viability (Wnt-C59 + Dasatinib; first compound 0.01 µM): 0.236 | relative viability (Wnt-C59 + Dasatinib; first compound 0.03162 µM): 0.269 | relative viability (Wnt-C59 + Dasatinib; first compound 0.1 µM): 0.249 | relative viability (Lapatinib + Pictilisib; first compound 0.02 µM): 0.389 | relative viability (Lapatinib + Pictilisib; first compound 0.06325 µM): 0.454 | relative viability (Lapatinib + Pictilisib; first compound 0.2 µM): 0.553 | relative viability (Lapatinib + Pictilisib; first compound 0.6325 µM): 0.54 | relative viability (Lapatinib + Pictilisib; first compound 2 µM): 0.45

EKVX
relative viability (Wnt-C59 + Tozasertib; first compound 0.001 µM): 0.437 | relative viability (Wnt-C59 + Tozasertib; first compound 0.01 µM): 0.357 | relative viability (Wnt-C59 + Tozasertib; first compound 0.03162 µM): 0.406 | relative viability (Wnt-C59 + Tozasertib; first compound 0.1 µM): 0.402 | relative viability (Lapatinib + Foretinib; first compound 0.02 µM): 0.202 | relative viability (Lapatinib + Foretinib; first compound 0.06325 µM): 0.738 | relative viability (Lapatinib + Foretinib; first compound 0.2 µM): 0.822 | relative viability (Lapatinib + Foretinib; first compound 0.6325 µM): 0.581 | relative viability (Lapatinib + Foretinib; first compound 2 µM): 0.201 | relative viability (Wnt-C59 + Dasatinib; first compound 0.001 µM): 0.575 | relative viability (Wnt-C59 + Dasatinib; first compound 0.01 µM): 0.511 | relative viability (Wnt-C59 + Dasatinib; first compound 0.03162 µM): 0.527 | relative viability (Wnt-C59 + Dasatinib; first compound 0.1 µM): 0.451 | relative viability (Lapatinib + Pictilisib; first compound 0.02 µM): 0.41 | relative viability (Lapatinib + Pictilisib; first compound 0.06325 µM): 0.322 | relative viability (Lapatinib + Pictilisib; first compound 0.2 µM): 0.376 | relative viability (Lapatinib + Pictilisib; first compound 0.6325 µM): 0.345 | relative viability (Lapatinib + Pictilisib; first compound 2 µM): 0.177

NCI-H1437
relative viability (Wnt-C59 + Tozasertib; first compound 0.001 µM): 0.426 | relative viability (Wnt-C59 + Tozasertib; first compound 0.01 µM): 0.428 | relative viability (Wnt-C59 + Tozasertib; first compound 0.03162 µM): 0.417 | relative viability (Wnt-C59 + Tozasertib; first compound 0.1 µM): 0.384 | relative viability (Lapatinib + Foretinib; first compound 0.02 µM): 1.23 | relative viability (Lapatinib + Foretinib; first compound 0.06325 µM): 1.33 | relative viability (Lapatinib + Foretinib; first compound 0.2 µM): 1.32 | relative viability (Lapatinib + Foretinib; first compound 0.6325 µM): 1.2 | relative viability (Lapatinib + Foretinib; first compound 2 µM): 1.12 | relative viability (Wnt-C59 + Dasatinib; first compound 0.001 µM): 0.378 | relative viability (Wnt-C59 + Dasatinib; first compound 0.01 µM): 0.308 | relative viability (Wnt-C59 + Dasatinib; first compound 0.03162 µM): 0.384 | relative viability (Wnt-C59 + Dasatinib; first compound 0.1 µM): 0.495 | relative viability (Lapatinib + Pictilisib; first compound 0.02 µM): 0.5 | relative viability (Lapatinib + Pictilisib; first compound 0.06325 µM): 0.314 | relative viability (Lapatinib + Pictilisib; first compound 0.2 µM): 0.386 | relative viability (Lapatinib + Pictilisib; first compound 0.6325 µM): 0.482 | relative viability (Lapatinib + Pictilisib; first compound 2 µM): 0.422

BEN
relative viability (Wnt-C59 + Tozasertib; first compound 0.001 µM): 0.478 | relative viability (Wnt-C59 + Tozasertib; first compound 0.01 µM): 0.474 | relative viability (Wnt-C59 + Tozasertib; first compound 0.03162 µM): 0.497 | relative viability (Wnt-C59 + Tozasertib; first compound 0.1 µM): 0.501 | relative viability (Lapatinib + Foretinib; first compound 0.06325 µM): 0.667 | relative viability (Lapatinib + Foretinib; first compound 0.2 µM): 0.653 | relative viability (Lapatinib + Foretinib; first compound 0.6325 µM): 0.763 | relative viability (Lapatinib + Foretinib; first compound 2 µM): 0.554 | relative viability (Wnt-C59 + Dasatinib; first compound 0.001 µM): 0.329 | relative viability (Wnt-C59 + Dasatinib; first compound 0.01 µM): 0.3 | relative viability (Wnt-C59 + Dasatinib; first compound 0.03162 µM): 0.35 | relative viability (Wnt-C59 + Dasatinib; first compound 0.1 µM): 0.385 | relative viability (Lapatinib + Pictilisib; first compound 0.02 µM): 0.412 | relative viability (Lapatinib + Pictilisib; first compound 0.06325 µM): 0.577 | relative viability (Lapatinib + Pictilisib; first compound 0.2 µM): 0.53 | relative viability (Lapatinib + Pictilisib; first compound 0.6325 µM): 0.519 | relative viability (Lapatinib + Pictilisib; first compound 2 µM): 0.505

NCI-H1666
relative viability (Wnt-C59 + Tozasertib; first compound 0.001 µM): 0.649 | relative viability (Wnt-C59 + Tozasertib; first compound 0.01 µM): 0.674 | relative viability (Wnt-C59 + Tozasertib; first compound 0.03162 µM): 0.566 | relative viability (Wnt-C59 + Tozasertib; first compound 0.1 µM): 0.576 | relative viability (Lapatinib + Foretinib; first compound 0.02 µM): 0.815 | relative viability (Lapatinib + Foretinib; first compound 0.06325 µM): 0.868 | relative viability (Lapatinib + Foretinib; first compound 0.2 µM): 0.873 | relative viability (Lapatinib + Foretinib; first compound 0.6325 µM): 0.652 | relative viability (Lapatinib + Foretinib; first compound 2 µM): 0.558 | relative viability (Wnt-C59 + Dasatinib; first compound 0.001 µM): 0.803 | relative viability (Wnt-C59 + Dasatinib; first compound 0.01 µM): 0.84 | relative viability (Wnt-C59 + Dasatinib; first compound 0.03162 µM): 0.836 | relative viability (Wnt-C59 + Dasatinib; first compound 0.1 µM): 0.795 | relative viability (Lapatinib + Pictilisib; first compound 0.02 µM): 0.33 | relative viability (Lapatinib + Pictilisib; first compound 0.06325 µM): 0.327 | relative viability (Lapatinib + Pictilisib; first compound 0.2 µM): 0.39 | relative viability (Lapatinib + Pictilisib; first compound 0.6325 µM): 0.329 | relative viability (Lapatinib + Pictilisib; first compound 2 µM): 0.2

LCLC-103H
relative viability (Wnt-C59 + Tozasertib; first compound 0.001 µM): 0.516 | relative viability (Wnt-C59 + Tozasertib; first compound 0.01 µM): 0.487 | relative viability (Wnt-C59 + Tozasertib; first compound 0.03162 µM): 0.475 | relative viability (Wnt-C59 + Tozasertib; first compound 0.1 µM): 0.474 | relative viability (Lapatinib + Foretinib; first compound 0.02 µM): 0.849 | relative viability (Lapatinib + Foretinib; first compound 0.06325 µM): 0.744 | relative viability (Lapatinib + Foretinib; first compound 0.2 µM): 0.753 | relative viability (Lapatinib + Foretinib; first compound 0.6325 µM): 0.835 | relative viability (Lapatinib + Foretinib; first compound 2 µM): 0.712 | relative viability (Wnt-C59 + Dasatinib; first compound 0.001 µM): 0.509 | relative viability (Wnt-C59 + Dasatinib; first compound 0.01 µM): 0.471 | relative viability (Wnt-C59 + Dasatinib; first compound 0.03162 µM): 0.493 | relative viability (Wnt-C59 + Dasatinib; first compound 0.1 µM): 0.516 | relative viability (Lapatinib + Pictilisib; first compound 0.06325 µM): 0.555 | relative viability (Lapatinib + Pictilisib; first compound 0.2 µM): 0.695 | relative viability (Lapatinib + Pictilisib; first compound 0.6325 µM): 0.636 | relative viability (Lapatinib + Pictilisib; first compound 2 µM): 0.494

NCI-H2009
relative viability (Wnt-C59 + Tozasertib; first compound 0.001 µM): 0.805 | relative viability (Wnt-C59 + Tozasertib; first compound 0.01 µM): 0.798 | relative viability (Wnt-C59 + Tozasertib; first compound 0.03162 µM): 0.72 | relative viability (Wnt-C59 + Tozasertib; first compound 0.1 µM): 0.726 | relative viability (Lapatinib + Foretinib; first compound 0.02 µM): 1.17 | relative viability (Lapatinib + Foretinib; first compound 0.06325 µM): 1.25 | relative viability (Lapatinib + Foretinib; first compound 0.2 µM): 1.26 | relative viability (Lapatinib + Foretinib; first compound 0.6325 µM): 1.22 | relative viability (Lapatinib + Foretinib; first compound 2 µM): 1.17 | relative viability (Wnt-C59 + Dasatinib; first compound 0.001 µM): 0.31 | relative viability (Wnt-C59 + Dasatinib; first compound 0.01 µM): 0.331 | relative viability (Wnt-C59 + Dasatinib; first compound 0.03162 µM): 0.311 | relative viability (Wnt-C59 + Dasatinib; first compound 0.1 µM): 0.311 | relative viability (Lapatinib + Pictilisib; first compound 0.02 µM): 0.357 | relative viability (Lapatinib + Pictilisib; first compound 0.06325 µM): 0.747 | relative viability (Lapatinib + Pictilisib; first compound 0.2 µM): 0.989 | relative viability (Lapatinib + Pictilisib; first compound 0.6325 µM): 0.853 | relative viability (Lapatinib + Pictilisib; first compound 2 µM): 0.974

LOU-NH91
relative viability (Wnt-C59 + Tozasertib; first compound 0.001 µM): 0.775 | relative viability (Wnt-C59 + Tozasertib; first compound 0.01 µM): 0.597 | relative viability (Wnt-C59 + Tozasertib; first compound 0.03162 µM): 0.695 | relative viability (Wnt-C59 + Tozasertib; first compound 0.1 µM): 0.682 | relative viability (Lapatinib + Foretinib; first compound 0.02 µM): 0.902 | relative viability (Lapatinib + Foretinib; first compound 0.06325 µM): 0.815 | relative viability (Lapatinib + Foretinib; first compound 0.2 µM): 0.689 | relative viability (Lapatinib + Foretinib; first compound 0.6325 µM): 0.604 | relative viability (Lapatinib + Foretinib; first compound 2 µM): 0.498 | relative viability (Wnt-C59 + Dasatinib; first compound 0.001 µM): 0.6 | relative viability (Wnt-C59 + Dasatinib; first compound 0.01 µM): 0.529 | relative viability (Wnt-C59 + Dasatinib; first compound 0.03162 µM): 0.523 | relative viability (Wnt-C59 + Dasatinib; first compound 0.1 µM): 0.57 | relative viability (Lapatinib + Pictilisib; first compound 0.02 µM): 0.395 | relative viability (Lapatinib + Pictilisib; first compound 0.06325 µM): 0.451 | relative viability (Lapatinib + Pictilisib; first compound 0.2 µM): 0.425 | relative viability (Lapatinib + Pictilisib; first compound 0.6325 µM): 0.513 | relative viability (Lapatinib + Pictilisib; first compound 2 µM): 0.447

NCI-H441
relative viability (Wnt-C59 + Tozasertib; first compound 0.001 µM): 0.691 | relative viability (Wnt-C59 + Tozasertib; first compound 0.01 µM): 0.646 | relative viability (Wnt-C59 + Tozasertib; first compound 0.03162 µM): 0.691 | relative viability (Wnt-C59 + Tozasertib; first compound 0.1 µM): 0.566 | relative viability (Lapatinib + Foretinib; first compound 0.06325 µM): 0.931 | relative viability (Lapatinib + Foretinib; first compound 0.2 µM): 1.01 | relative viability (Lapatinib + Foretinib; first compound 0.6325 µM): 0.822 | relative viability (Lapatinib + Foretinib; first compound 2 µM): 1.1 | relative viability (Wnt-C59 + Dasatinib; first compound 0.001 µM): 0.56 | relative viability (Wnt-C59 + Dasatinib; first compound 0.01 µM): 0.637 | relative viability (Wnt-C59 + Dasatinib; first compound 0.03162 µM): 0.615 | relative viability (Wnt-C59 + Dasatinib; first compound 0.1 µM): 0.298 | relative viability (Lapatinib + Pictilisib; first compound 0.02 µM): 0.332 | relative viability (Lapatinib + Pictilisib; first compound 0.06325 µM): 0.417 | relative viability (Lapatinib + Pictilisib; first compound 0.2 µM): 0.431 | relative viability (Lapatinib + Pictilisib; first compound 0.6325 µM): 0.422 | relative viability (Lapatinib + Pictilisib; first compound 2 µM): 0.453
